Data from PMC9474883, “Novel tricyclic small molecule inhibitors of Nicotinamide N-methyltransferase for the treatment of metabolic disorders” (Scientific Reports, 2022).
Where “and” joins values, the source holds several entries; their conditions need not be identical. Equal entries are not always repeated.

What was measured:
hNNMT [1] = biological target: T1, hNNMT (Homo sapiens, UniProt P40261); assay: Fluorescence based NNMT enzymatic assay (human); format: biochemical; conditions: recombinant human NNMT, fluorescence of an MNA derivative; for IC50: read-out: hNNMT IC50
T1 sequence (P40261 1-264): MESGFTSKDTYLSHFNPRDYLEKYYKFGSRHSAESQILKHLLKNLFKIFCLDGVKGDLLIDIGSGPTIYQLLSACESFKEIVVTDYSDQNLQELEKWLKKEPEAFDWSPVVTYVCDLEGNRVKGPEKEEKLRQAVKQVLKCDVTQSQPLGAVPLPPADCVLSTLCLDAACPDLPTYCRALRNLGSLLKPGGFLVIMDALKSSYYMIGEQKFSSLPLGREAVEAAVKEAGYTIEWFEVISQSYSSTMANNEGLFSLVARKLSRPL
Description: (§1) NNMT activity was measured by a fluorescence based assay as previously described. Briefly, Inhibitors were screened using human, mouse and monkey NNMT enzymes at different concentrations. The final assay reaction mixture contained a buffer of 100 mM Tris Hcl pH 7.5, 0.04% BSA, 2 mM Dithiothreitol and 1% DMSO. A fluorescent product 2, 7- naphthyridine was measured in a Tecan reader with excitation at 375 nm and emission at 430 nm. The IC50 values were determined by fitting the inhibition curves (percent inhibition versus inhibitor concentration) using a four parametric sigmoidal dose response in graph pad prism.

NNMT = conditions: published NNMT inhibitor; cited from earlier work
[2] = system: NNMT (endogenous MNA levels); assay: Determination of MNA in cells (Target engagement); format: cell-based, human; conditions: maximal MNA reduction relative to control without compound
Description: (§2) As next steps, cellular assays using the human U2OS cell line were carried out. This assay, described in[6], measures inhibition of endogenous NNMT, without recombinant expression, by quantification of MNA via LC–MS/MS. […] EC50 values were higher by a factor of ~ 30 compared to IC50 values on the isolated recombinant hNNMT, probably reflecting low cell membrane permeability.

[3] = biological target: T2, endogenous NNMT in U2OS cells (Homo sapiens, UniProt P40261); assay: Cell based U2OS assay (endogenous NNMT, MNA by LC–MS/MS); conditions: 24 h treatment; for EC50: read-out: Cell based inhibition in U2OS EC50
T2 construct: endogenous in cells; host or cells: U2OS (human bone osteosarcoma)
T2 sequence (P40261 1-264): T1 sequence (P40261 1-264)
Description: as §2
The cell based assay with Human bone osteosarcoma (U2OS) cell line was performed using procedures described before (6). Briefly, the cells were seeded into a 96 well cell culture plate followed by incubation for 24 h at 37 °C, 5% CO2, and 95% humidity. Cell culture media was replaced with 100 µl of medium/ inhibitor mixture at different concentrations and incubated for another 24 h. The cells were processed and […] of supernatant was transferred into 96 well plate (Costar 3364) and analyzed by LC–MS/MS. The IC50 values were determined by fitting the inhibition curves (percent inhibition versus inhibitor concentration) using a four parametric sigmoidal dose response graph pad prism.

mouse NNMT = biological target: T3, mouse NNMT (Mus musculus, UniProt O55239); assay: Fluorescence based NNMT enzymatic assay (mouse); format: biochemical; conditions: recombinant mouse NNMT, fluorescence of an MNA derivative; read-out: mNNMT IC50
T3 sequence (O55239 1-264): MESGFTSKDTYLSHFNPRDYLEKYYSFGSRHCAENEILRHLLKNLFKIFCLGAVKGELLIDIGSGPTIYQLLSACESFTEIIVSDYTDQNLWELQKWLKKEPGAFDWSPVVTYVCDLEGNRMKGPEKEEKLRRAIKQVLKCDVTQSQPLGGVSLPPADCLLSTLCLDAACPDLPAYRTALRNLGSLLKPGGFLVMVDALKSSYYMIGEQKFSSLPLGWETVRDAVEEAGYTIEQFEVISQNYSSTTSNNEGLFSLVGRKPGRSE
Description: as §1

hNNMT [4] = biological target: T1, hNNMT; assay: Thermal shift assay; conditions: for shift in melting temperature (Tm) in presence of SAM / shift in melting temperature (Tm) in presence of SAH: hNNMT; for shift in melting temperature (Tm) in presence of SAM: 5 uM SAM, 10 uM compound; for shift in melting temperature (Tm) in presence of SAH: enzyme:SAH:compound ~ 1:5:10 (1 uM protein, 5 uM SAH, 10 uM compound)
Description: Thermal shift assay was performed to assess the binding of tricyclic compounds [(6) = JBSNF-000028, (8) = JBSNF-000107] to hNNMT prior to co-crystallization studies.

SMILES | IC50 (hNNMT [1]) | IC50 (mouse NNMT) | further results
CN1Cc2cccc3c2N(CC3)C1=O [(7), 2-methyl-1,2,5,6-tetrahydro-3H-pyrrolo[3,2,1-ij]quinazolin-3-one] |  |  | hNNMT IC50 (hNNMT [1]): inactive
CN1Cc2cccc3cccc(c23)C1=N [(24)] | > 10000 nM |  | 
N=c1sc2cccc3c2n1CCC3 [A] | 1600 nM |  | 
CCn1c(=N)n2c3c(cccc31)CCC2 [B] | 180 nM |  | 
CNc1ccc(C(N)=O)cn1 [Compound 28, 6-methylaminonicotinamide] |  |  | IC50 (NNMT): 590 nM
CN1Cc2cccc3c2N(CCC3)C1=N [Compound (1)] | 130 ± 80 nM | 180 ± 10 nM | % MNA reduction [2]: 30%; Cell based inhibition in U2OS EC50 [3]: active; EC50 [3]: 2500 ± 300 nM
CN1Cc2cc(F)cc3c2N(CCC3)C1=N [Compound (2)] | 59 ± 4 nM | 330 ± 130 nM | % MNA reduction [2]: 21%; Cell based inhibition in U2OS EC50 [3]: active; EC50 [3]: 2200 ± 100 nM
CN1Cc2c(F)c(F)cc3c2N(CCC3)C1=N [Compound (3)] | 200 nM and 190 nM | 1200 ± 750 nM | % MNA reduction [2]: 14%; EC50 [3]: > 3000 nM
CN1Cc2cncc3c2N(CCC3)C1=N [Compound (4)] | 360 ± 100 nM | 770 ± 40 nM | 
CN1Cc2cccc3c2N(CCCC3)C1=N [Compound (5)] | > 30000 nM |  | 
CN1Cc2cc(F)cc3c2N(CC3)C1=N [Compound (8)] | 38 nM and 39 nM | 1100 ± 500 nM | Tm in presence of SAH (hNNMT [4]; hNNMT 1 uM, SAH 5 uM, compound 10 uM, protein with SAH alone Tm=39°C): 50 °C; Tm in presence of SAM (hNNMT [4]; hNNMT 1 uM, SAM 5 uM, compound 10 uM, protein with SAM alone Tm=38°C): 41 °C; shift in melting temperature (Tm) in presence of SAM (hNNMT [4]; listed as JBSFN-107): up to 3 °C; shift in melting temperature (Tm) in presence of SAM (hNNMT [4]; listed as JBSNF-000107): ~ 3 °C; shift in melting temperature (Tm) in presence of SAH (hNNMT [4]; listed as JBSFN-107): up to 11 °C; shift in melting temperature (Tm) in presence of SAH (hNNMT [4]; listed as JBSNF-000107): ~ 10 °C; % MNA reduction [2]: 30%; EC50 [3]: 1100 ± 200 nM
Br.CN1Cc2c(F)c(F)cc3c2N(CC3)C1=N [Compound (9), 8,9-difluoro-2-methyl-1,2,5,6-tetrahydro-3H-pyrrolo[3,2,1-ij]quinazolin-3-imine hydrobromide] | 490 ± 40 nM | > 3000 nM | % MNA reduction [2]: 43%; EC50 [3]: > 3000 nM
CN1Cc2ccc(F)c3c2N(CC3)C1=N [Compound (11)] | > 1000 nM |  | 
CN1Cc2cccc3c2N(CCO3)C1=N [Compound (12)] | 180 ± 20 nM | 380 ± 20 nM | 
CN1Cc2cccc3c2N(CCS3)C1=N [Compound (13)] | 860 ± 60 nM | 200 ± 20 nM | % MNA reduction [2]: 40%; EC50 [3]: > 10000 nM
CN1Cc2cccc3c2N(CCN3C#N)C1=N [Compound (14)] | 250 ± 70 nM | 720 ± 70 nM | 
CC(=O)N1CCN2C(=N)N(C)Cc3cccc1c32 [Compound (15)] | > 30000 nM |  | 
CN1Cc2cccc3c2N(CCN3C)C1=N [Compound (16)] | > 30000 nM |  | 
CN(C)C(=O)N1CCN2C(=N)N(C)Cc3cccc1c32 [Compound (17)] | > 30000 nM |  | 
Br.CN1Cc2cc(F)cc3c2N(CCO3)C1=N [Compound (18)] | 69 ± 36 nM | > 3000 nM | % MNA reduction [2]: 30%; EC50 [3]: 2500 ± 200 nM
CN1Cc2cc(F)cc3c2N(CCN3C)C1=N [Compound (20)] | > 3000 nM |  | 
Br.N=C1N(CC(F)(F)F)Cc2cc(F)cc3c2N1CCO3 [Compound (21)] | > 30000 nM |  | hNNMT IC50 (hNNMT [1]): inactive
Br.N=C1N(CCCc2ccccc2F)Cc2cccc3c2N1CCO3 [Compound (22)] | > 30000 nM |  | hNNMT IC50 (hNNMT [1]): inactive
CN1Cc2cccc3ccn(c23)C1=N [Compound (23)] | > 30000 nM |  | 
CN1Cc2c3c(nn2C)CCCN3C1=N [Compound (25)] | > 30000 nM |  | 
CN1Cc2nn(C)c3c2N(CCC3)C1=N [Compound (26)] | > 30000 nM |  | 
CN1CCc2cccc3c2N(CC3)C1=N [Compound (27)] | > 3000 nM |  | 
